The results in this text go back to BindingDB's records for doi:10.1002/cbic.201500668 (University of Siena, 2016).

SMILES strings stand for the structures.

Test [1] has as its target T1, Gag-Pol polyprotein (Human immunodeficiency virus type 1 group M subtype B (isolate NY5), UniProt P12497). The test is described as follows: RNase H (RH) Assay. The settings on record: pH 7.8; 37 °C. As to the method: HIV RT-associated RNase H activity was measured as previously described.[J. Med. Chem. 2014, 57:3223-3234] Briefly, the reaction mixture comprised Tris HCl ([…], 50 mm, pH 7.8) containingMgCl2 (6 mm), dithiothreitol (1 mm), KCl (80 mm), hybrid RNA/DNA 5'-GAUCU GAGCC UGGGA GCU-Fluorescin-3' (0.25 mm; HPLC, dry, QC: Mass Check; Metabion, Steinkirchen, Germany), 5'-Dabcyl-AGCTC CCAGG CTCAG ATC-3' (HPLC, dry, QC: Mass Check), and HIV-1 RT (20 ng, according to a linear range of dose-activity curve). The reaction mixture was incubated for 1 h at 37 °C, and the reaction was stopped by addition of EDTA; products were measured with a Victor 3 multilabel counter plate reader (model 1420-051; PerkinElmer) equipped with filters (lex=490 nm, lem=528 nm).

For test [2], the target named is T1, Gag-Pol polyprotein. The test is described as follows: RNA-dependent DNA Polymerase (RDDP) Assay. The settings on record: pH 8.1; 37 °C. Here is the method: RNA-dependent DNA polymerase (RDDP) activity was measured as described[J. Microbiol. […] After enzyme addition, the reaction mixture was incubated for 30 min at 37 °C, then the reaction was stopped by addition of EDTA.

Turning to `Cn1c(=O)c2c(nc3n2CC(O)CN3c2ccc(O)cc2)n(C)c1=O` (stereo unspecified) [MAS0 (1)], the half-maximal inhibitory concentration (IC50) on Gag-Pol polyprotein [1] was 100 µM; against Gag-Pol polyprotein [2] it was over 100 µM.

`CCOC(=O)C(=O)CC(=O)/C=C/c1cccn1Cc1ccccc1Cl` [RDS1759] gave an IC50 against Gag-Pol polyprotein [1] of 7.5 µM. In turn, `CCc1ccc(N2CC(O)Cn3c2nc2c3c(=O)n(C)c(=O)n2C)cc1` (stereo unspecified) [STOCK2S-18057 (3)] came in with an IC50 against Gag-Pol polyprotein [2] of over 100 µM. In the case of `CCCCCn1c(=O)c2c(nc3n2CC(C)CN3c2ccc(OC)cc2)n(C)c1=O` (stereo unspecified) [STOCK4S-37006 (4)], the IC50 on Gag-Pol polyprotein [1] came to 97 µM; against Gag-Pol polyprotein [2], 100 µM. Taken in the same sequence, the figures for `CCOc1ccc(N2CC(O)Cn3c2nc2c3c(=O)n(CC(=O)OCc3ccccc3)c(=O)n2C)cc1` (stereo unspecified) [STOCK4S-60534 (6)] were 33 µM and 28.5 µM. For `CCCCCn1c(=O)c2c(nc3n2CCCN3c2ccc(Oc3ccccc3)cc2)n(C)c1=O` [STOCK5S-18255 (2)] the same measures were 25 µM and 69 µM. At Gag-Pol polyprotein [2], `CCOc1ccc(N2CC(O)Cn3c2nc2c3c(=O)n(CC(N)=O)c(=O)n2C)cc1` (stereo unspecified) [STOCK5S-55040 (5)] had an IC50 of over 100 µM.
